# Experimental data published in US11136370B2, “Compositions and methods for thrombin generation assay” (The Scripps Research Institute, priority 2016, dated 2021).
# How the values were obtained:
# thrombin = thrombin (Homo sapiens, UniProt P00734); details: 0.5 nM FIIa, 50 pM rTF, 180 s
# Procedure: FVIII activation by stable FXa complexes with TF-FVIIa was tested in reactions containing FVIII, FV and lepirudin with or without TFPIα, with incubation for 30-120 s at 37° C. […] The inhibitory effect of hirugen on FVIIIa generation by FIIa was tested in reactions with 0.5 nM FIIa incubated with 50 pM rTF and FVIII for 180 s at 37° C.
# thrombin generation (TG) [1] = assay: TG in FVII-deficient reconstituted PRP with FVIIa WT or mutants; type: biochemical, human; details: FVII-deficient plasma
# Procedure: (A) Phospholipid-free assay of FX (1 μM) to FXa conversion by the complex of 2 μM soluble rTF with 10 nM FVIIa WT, T99Y or E154A. (B) FXa generation by 50 pM phospholipid-reconstituted rTF with 200 pM FVIIa WT, T99Y or E154A added to 135 nM FX, 0.7 nM FVIII, 3 nM FV and 200 nM lepirudin (2 min, n=2-3; 4 min, n=4-5; 6 min, n=6-9). (C) WB (representing 2) of FVIII activation in reactions of 50 pM TF, 200 pM FVIIa WT or mutants, 0.7 nM FVIII, 3 nM FV and 200 nM lepirudin without/with 135 nM FX, incubated for 120 s at 37° C. […] (E) FXa generation measured in reactions as in (D) without TFPIα and in the presence of 10 nM FIXa (left, incubation 180 s; n=5-6 except=2 for E154A) or 90 nM FIX (right, incubation for 360 s; n=5-6). […] Differences were evaluated by the ANOVA/Tukey test; results at 4 and 6 min in (B) and in reactions with FIX in (E, right) were analyzed after transformation as y=log 10 y (**P<0.01, ***P<0.001).
# Thrombin was quantified with a fluorogenic substrate for calculation of % inhibition. […] Endogenous thrombin potential (ETP, right) was calculated from the area under the TG curve (n=2). […] Differences were evaluated with the ANOVA/Tukey test (performed after log 10 transformation of the data shown in E); *P<0.05, ***P<0.001. […]
# thrombin generation (TG) [2] = type: biochemical, human; details: 2 μM hirugen, PRP with CTI and anti-FXI MoAb
# Procedure: TG in PRP or reconstituted PRP was evaluated as known to those skilled in the art. Native PRP was prepared from blood collected into final 12.9 mM trisodium citrate by centrifugation at 250 g for 10 min at 25° C. The platelet count was adjusted to 180×10^3/μl by dilution with homologous PPP obtained by centrifuging PRP for 10 min at 1,500 g. CTI was added at 30-50 μg/ml depending on calibrated potency as assessed by FXIIa inhibition. Reconstituted PRP was prepared with washed platelets prepared from normal PRP by adding ⅕th volume of acid citrate-dextrose (71 mM citric acid, 85 mM trisodium citrate, and 111 mM dextrose, pH 4.5) and 5 U/ml apyrase; following centrifugation at 1,500 g for 10 minutes at 25° C., the platelet pellet was resuspended into PPP lacking FVII (George King Bio-Medical) or FIX (Haematologic Technologies) to give a final platelet count of 180·103/μl PRP was mixed with varying concentrations of rTF and/or 20 pM FIXa in 96-well microtiter plates. The reaction was started by adding 18 mM CaCl2 with 360 μM of the thrombin substrate benzyloxycarbonyl-glycyl-glycyl-L-arginine coupled to the fluorogenic group 7-amido-4-methylcoumarin (Gly-Gly-Arg-AMC; Bachem Americas, Torrance, Calif.). Fluorescence was measured continuously at 37° C. for up to 40 min in a spectrofluorometer (355/460 nm excitation/emission). The rate of fluorescence intensity increase as a function of time (dF/dt) was calculated with Turbo Delphi 2006 (Borland Software Corporation, Austin, Tex.) and converted to thrombin-equivalent concentration (nM) using a calibration curve. The endogenous thrombin potential (ETP) of samples, i.e. total generated thrombin activity, was determined from the area under the TG curve. When specified, TG was measured with a discontinuous 2-stage assay with a detection limit of 5 pM. For this, TG was induced by 0.15 pM rTF and 18 mM CaCl2 in reconstituted FVII-deficient PRP including 30 μg/ml CTI with 400 pM WT FVIIa or iFVIIa without or with 20 pM FIXa. After incubation for up to 11 min at 37° C., reactions were terminated by adding 20 mM EDTA and generated thrombin was measured using the highly sensitive thrombin substrate H-D-CHA-Ala-Arg-AMC.2AcOH (Pefafluor TH, Pentapharm, Basel, Switzerland) at 50 μM concentration. In other experiments, TG was induced by TFiFVIIa-FXa-TFPI or TF-iFVIIa-FXa-NAPc2. These stable complexes were pre-formed by incubating 5 nM FXa, 10 nM TF, 10 nM iFVIIa and 40 nM TFPI or NAPc2 in the presence of 2.5 mM CaCl2 for 2 min at 37° C. Complexes were added into FVII-deficient PRP, followed by incubation for 8 min at 37° C.
# PRP was prepared from blood collected into trisodium citrate (final concentration 0.0129 M) by centrifugation for at 250 g for 10 min at 25° C.; the platelet count was adjusted at 180.103 per μl by diluting with homologous platelet-poor plasma (PPP) obtained by centrifuging PRP for an additional 10 min at 1,500 g. When indicated, CTI was added at 30 to 50 μg/ml depending on calibrated potency measured by FXIIa inhibition. Reconstituted PRP was prepared by adding normal washed platelets into PPP (without or with CTI) lacking FVII, FVIII (both from George King Bio-Medical, Overland Park, Kans.) or FIX (Haematologic Technologies). […] generation in PRP was measured as described by Hemker et al. 53 μl of PRP was mixed in 96-well microtiter plates with 15 μl of a solution containing rTF and/or one of the intrinsic coagulation pathway proteases—FXIIa, FXIa or FIXa—to achieve the indicated final concentrations. Antibodies or inhibitors were also added at this point at the concentration indicated for each specific case. The reaction was started by adding between 15 and 20 μl of 100 mM CaCl2 and 2 mM fluorogenic substrate, benzyloxycarbonyl-glycyl-glycyl-L-arginine-7-amido-4-methylcoumarin (Gly-Gly-Arg-AMC; Bachem Americas, Torrance, Calif.).
substance,measurement,setting,value
63-O-Sulfo-Tyr-hirudin [hirugen],effect on FVIII activation by thrombin,thrombin,dose-dependently inhibited
same,effect on FIXa-initiated TG,thrombin generation (TG) [1],abolished
same,effect on FIXa-dependent TG,thrombin generation (TG) [2],blocked
same,effect on TG by FIXa combined with rTF,thrombin generation (TG) [2],failed to inhibit
